{"source": "patent US20210000953A1", "about": "“USE OF IMMUNE CHECKPOINT INHIBITORS IN CENTRAL NERVOUS SYSTEMS NEOPLASMS” (Bristol-Myers Squibb Company, priority 2014, published 2021)", "origin": "cited, not measured here", "key": {"recurrent GBM": {"tested_on": "recurrent GBM", "conditions": "single agent, relapsed setting; cited from earlier work"}, "[1]": {"conditions": "in vivo; cited from earlier work"}, "newly diagnosed GBM": {"tested_on": "newly diagnosed GBM", "conditions": "cited from earlier work"}, "previously treated GBM": {"tested_on": "previously treated GBM", "conditions": "AVF3708g, cited from earlier work"}, "[2]": {"tested_on": "previously treated gliomas", "conditions": "NCI 06-C-0064E, cited from earlier work"}}}
{"compound": "CCc1c2c(nc3ccc(OC(=O)N4CCC(N5CCCCC5)CC4)cc13)-c1cc3c(c(=O)n1C2)COC(=O)[C@]3(O)CC", "note": "[irinotecan]", "values": [{"measurement": "Response rates", "setting": "recurrent GBM", "value": "≤ 15", "unit": "%"}]}
{"compound": "Cn1nnc2c(C(N)=O)ncn2c1=O", "note": "[temozolomide]", "values": [{"measurement": "Terminal half-life", "setting": "[1]", "value": 1.2, "unit": "h"}]}
{"compound": "bevacizumab", "values": [{"measurement": "Cognitive function and quality of life", "setting": "newly diagnosed GBM; in vivo", "value": "reduced cognitive function and quality of life"}, {"measurement": "Overall survival", "setting": "newly diagnosed GBM; newly diagnosed GBM, above standard of care (radiotherapy plus temozolomide)", "value": "does not significantly increase overall survival"}, {"measurement": "Progression-free survival", "setting": "newly diagnosed GBM; newly diagnosed GBM, with radiotherapy plus temozolomide", "value": "increases progression-free survival"}, {"measurement": "Responses, % of patients", "setting": "previously treated GBM; WHO radiographic criteria, 95% CI:17.0%, 36.1%", "value": 25.9, "unit": "%"}, {"measurement": "Median duration of response", "setting": "previously treated GBM; 95% CI: 3.0, 5.7 months", "value": 4.2, "unit": "months"}, {"measurement": "Objective responses", "setting": "[2]; 56 patients with high-grade glioma, 95% CI, 10.9%, 31.3%", "value": 19.6, "unit": "%"}, {"measurement": "Median duration of response", "setting": "[2]; 95% CI: 2.4, 17.4", "value": 3.9, "unit": "months"}]}
